# Measured values: patent US20180243298A1, “TRPV3 MODULATORS” (AbbVie Inc., priority 2015, published 2018)
# Where two headings read alike, the source gives them in different places.
# Assays:
# [1] = test system: FITC-challenged mice; assay: Contact hypersensitivity (CHS) to FITC, ear swelling in mice; type: in vivo, mice (BALB/c); conditions: Mus musculus, reduction in ear skin thickness vs vehicle, 24 hours after FITC challenge, read-out: FITC % effect; for inhibition in vivo at 10 mg/kg: 10 mg/kg qd po; for inhibition in vivo at 100 mg/kg: 100 mg/kg bid po
# Protocol: (ii) In vivo Data The following protocol was used to evaluate the efficacy of a compound against contact hypersensitivity:
# Young adult female BALB/c mice (18±2 g body weight at 6-8 weeks old) Charles River Laboratories) were maintained under pathogen-free conditions and housed in an animal room maintained t at temperature of 21±1° C. and a humidity of 43±5%. Induction of contact hypersensitivity (CHS) and ear thickness measurements for all animals were carried out under light anesthesia (3-5% isoflurane/oxygen) for 1-2 minutes.
# Contact hypersensitivity consists of the afferent or initiation sensitizing phase, and the efferent or elicitation phase. The latter phase occurs when epidermal cells encounter a particular antigen to which the epidermal cells have previously been exposed, and is characterized in rodents by localized swelling in the skin.
# Fluorescein isothiocyanate (FITC) was purchased from Sigma-Aldrich and dissolved in 1:1 in acetone/dibutylphthalate prior to epicutaneous application. Mice were sensitized by painting epicutaneously 40 uL of 0.5% FITC on the abdomen ventral skin shaved one day prior to sensitization. Six days later, mice were challenged by painting epicutaneously 20 uL total volume of 0.5% FITC on the right ear (10 uL on either side). Control mice were treated with vehicle only. Ear swelling was measured 24 hours after challenge. Treatment groups were dosed orally at a dose volume of 10 mL/kg with compounds either BID (1 hour prior to FITC challenge, 8 hours after first dose and 2 hours prior to ear swelling measurement at 24 hours post FITC challenge) or QD (1 hour prior to FITC challenge and 2 hours prior to ear swelling measurement at 24 hours post FITC challenge). Inflammation was determined by the degree of ear swelling of the hapten exposed ear compared with the untreated ear with a Quick Mini thickness-gauge caliber (Mitutoyo, Japan). The change in ear thickness after allergen treatment can be used to calculate the percent suppression of contact hypersensitivity.
# The level of compound-mediated suppression of ear skin thickness in FITC-challenged mice is indicated in Table 2 wherein “A” refers to a reduction in ear skin thickness of >50%, “B” refers to a reduction in ear skin thickness of 30-50% and “C” refers to a reduction in ear skin thickness of <30% relative to vehicle-treated animals.
# [2] = biological target: T1, human TRPV3 (Homo sapiens, UniProt Q8NET8); assay: Calcium flux assay (FLIPR TETRA), recombinant HEK293 cells expressing TRPV3, 2-APB response; type: cell-based; conditions: 2-APB at its EC80
# T1 construct: expressed in transfected cells; host or cells: HEK293
# T1 sequence (Q8NET8 1-790): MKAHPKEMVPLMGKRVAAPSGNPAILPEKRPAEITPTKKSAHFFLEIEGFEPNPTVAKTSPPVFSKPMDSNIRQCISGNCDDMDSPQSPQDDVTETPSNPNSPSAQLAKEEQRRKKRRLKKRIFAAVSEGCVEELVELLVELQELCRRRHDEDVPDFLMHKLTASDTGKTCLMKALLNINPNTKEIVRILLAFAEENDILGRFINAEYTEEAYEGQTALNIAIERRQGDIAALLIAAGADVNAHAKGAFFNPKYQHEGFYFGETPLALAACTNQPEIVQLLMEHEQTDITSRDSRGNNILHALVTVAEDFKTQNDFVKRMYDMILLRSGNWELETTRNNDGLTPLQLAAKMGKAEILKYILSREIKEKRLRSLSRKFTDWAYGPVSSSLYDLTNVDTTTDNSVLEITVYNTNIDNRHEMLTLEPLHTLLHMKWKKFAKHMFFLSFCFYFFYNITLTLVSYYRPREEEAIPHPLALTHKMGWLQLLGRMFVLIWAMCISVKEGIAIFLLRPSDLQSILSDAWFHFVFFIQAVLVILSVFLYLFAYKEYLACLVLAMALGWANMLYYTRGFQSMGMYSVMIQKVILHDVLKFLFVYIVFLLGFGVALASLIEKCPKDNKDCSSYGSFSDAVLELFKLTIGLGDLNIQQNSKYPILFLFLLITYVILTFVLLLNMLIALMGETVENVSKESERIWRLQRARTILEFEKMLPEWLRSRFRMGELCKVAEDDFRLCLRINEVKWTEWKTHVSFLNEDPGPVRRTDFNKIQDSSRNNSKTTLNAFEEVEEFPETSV
# Outline: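 Response is the peak fluorescence increase over baseline, as a percentage of the compound-free response to 2-APB at EC80. Calcium flux recorded on FLIPR TETRA in stable human or mouse TRPV3 HEK293 cells after 90–120 min Calcium-4 dye loading.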
IC50 [2] [nM],SMILES,also measured
50 to 100,"COc1ncnc(OC)c1C(=O)Nc1nc(C(F)(F)F)c(CN2CC[C@@H](F)C2)s1 [Example 58, N-[5-{[(3R)-3-fluoropyrrolidin-1-yl]methyl}-4-(trifluoromethyl)-1,3-thiazol-2-yl]-4,6-dimethoxypyrimidine-5-carboxamide]",inhibition in vivo at 10 mg/kg [1]: 30 to 50%
100 to 500,"COc1ncnc(OC)c1C(=O)Nc1nc(C(F)(F)F)c(CN2CCC(OC)CC2)s1 [Example 48, 4,6-dimethoxy-N-{5-[(4-methoxypiperidin-1-yl)methyl]-4-(trifluoromethyl)-1,3-thiazol-2-yl}pyrimidine-5-carboxamide]",inhibition in vivo at 30 mg/kg ([1]; 30 mg/kg bid po): < 30%
50 to 100,"COc1ncnc(OC)c1C(=O)Nc1nc(C(F)(F)F)c(-c2ccnc(C(C)(C)C#N)c2)s1 [Example 33, N-{5-[2-(2-cyanopropan-2-yl)pyridin-4-yl]-4-(trifluoromethyl)-1,3-thiazol-2-yl}-4,6-dimethoxypyrimidine-5-carboxamide]",inhibition in vivo at 30 mg/kg ([1]; 30 mg/kg qd po): > 50%
50 to 100,"COc1ncnc(OC)c1C(=O)Nc1nc(C(F)(F)F)c(CNCC(C)C)s1 [Example 52, 4,6-dimethoxy-N-[5-{[(2-methylpropyl)amino]methyl}-4-(trifluoromethyl)-1,3-thiazol-2-yl]pyrimidine-5-carboxamide]",inhibition in vivo at 10 mg/kg [1]: 30 to 50%
50 to 100,"COc1ncnc(OC)c1C(=O)Nc1nc(C(F)(F)F)c(-c2ccnc(C#N)c2)s1 [Example 66, N-[5-(2-cyanopyridin-4-yl)-4-(trifluoromethyl)-1,3-thiazol-2-yl]-4,6-dimethoxypyrimidine-5-carboxamide]",inhibition in vivo at 100 mg/kg [1]: > 50%
< 50,"COc1ncnc(OC)c1C(=O)Nc1nc(C(F)(F)F)c(-c2cccc(C#N)c2)s1 [Example 40, N-[5-(3-cyanophenyl)-4-(trifluoromethyl)-1,3-thiazol-2-yl]-4,6-dimethoxypyrimidine-5-carboxamide]",inhibition in vivo at 30 mg/kg ([1]; 30 mg/kg bid po): < 30%
< 50,"COc1ncnc(OC)c1C(=O)Nc1nc(C(F)(F)F)c(-c2cccc(C#N)n2)s1 [Example 31, N-[5-(6-cyanopyridin-2-yl)-4-(trifluoromethyl)-1,3-thiazol-2-yl]-4,6-dimethoxypyrimidine-5-carboxamide]",inhibition in vivo at 30 mg/kg ([1]; 30 mg/kg qd po): > 50%
< 50,"COc1ncnc(OC)c1C(=O)Nc1nc(C(F)(F)F)c(-c2cnoc2)s1 [Example 169, 4,6-dimethoxy-N-[5-(1,2-oxazol-4-yl)-4-(trifluoromethyl)-1,3-thiazol-2-yl]pyrimidine-5-carboxamide]",inhibition in vivo at 30 mg/kg ([1]; 30 mg/kg bid po): < 30%
< 50,"COc1ncnc(OC)c1C(=O)Nc1nc(C(F)(F)F)c(-c2ccc3nonc3c2)s1 [Example 199, N-[5-(2,1,3-benzoxadiazol-5-yl)-4-(trifluoromethyl)-1,3-thiazol-2-yl]-4,6-dimethoxypyrimidine-5-carboxamide]",inhibition in vivo at 30 mg/kg ([1]; 30 mg/kg bid po): 30 to 50%
< 50,"COc1ncnc(OC)c1C(=O)Nc1nc(C(F)(F)F)c(-c2cncc(C(F)(F)F)c2)s1 [Example 196, 4,6-dimethoxy-N-{4-(trifluoromethyl)-5-[5-(trifluoromethyl)pyridin-3-yl]-1,3-thiazol-2-yl}pyrimidine-5-carboxamide]",inhibition in vivo at 30 mg/kg ([1]; 30 mg/kg bid po): < 30%
,"COc1ncnc(OC)c1C(=O)N(COP(=O)(O)O)c1nc(-c2ccc(C(F)(F)F)cn2)cs1 [Example 74, ([(4,6-dimethoxypyrimidin-5-yl)carbonyl]{4-[5-(trifluoromethyl)pyridin-2-yl]-1,3-thiazol-2-yl}amino)methyl dihydrogen phosphate]",inhibition in vivo at 100 mg/kg [1]: > 50%
< 50,"COc1ncnc(OC)c1C(=O)Nc1nc(C(F)(F)F)c(-c2ccnn2C(C)C)s1 [Example 180, 4,6-dimethoxy-N-{5-[1-(propan-2-yl)-1H-pyrazol-5-yl]-4-(trifluoromethyl)-1,3-thiazol-2-yl}pyrimidine-5-carboxamide]",
< 50,"COc1ncnc(OC)c1C(=O)Nc1nc(C(F)(F)F)c(-c2cnn(C(C)C)c2)s1 [Example 174, 4,6-dimethoxy-N-{5-[1-(propan-2-yl)-1H-pyrazol-4-yl]-4-(trifluoromethyl)-1,3-thiazol-2-yl}pyrimidine-5-carboxamide]",
< 50,"C#Cc1sc(NC(=O)c2c(OC)ncnc2OC)nc1C(F)(F)F [Example 11, N-[5-ethynyl-4-(trifluoromethyl)-1,3-thiazol-2-yl]-4,6-dimethoxypyrimidine-5-carboxamide]",
< 50,"COC/C=C\c1sc(NC(=O)c2c(OC)ncnc2OC)nc1C(F)(F)F [Example 17, 4,6-dimethoxy-N-{5-[(1Z)-3-methoxyprop-1-en-1-yl]-4-(trifluoromethyl)-1,3-thiazol-2-yl}pyrimidine-5-carboxamide]",
100 to 500,"COc1ncnc(OC)c1C(=O)Nc1nc(C(F)(F)F)c(S(=O)(=O)c2ccc(C)cc2)s1 [Example 110, 4,6-dimethoxy-N-[5-(p-tolylsulfonyl)-4-(trifluoromethyl)-1,3-thiazol-2-yl]pyrimidine-5-carboxamide]",
50 to 100,"COc1ncnc(OC)c1C(=O)Nc1nc(C(F)(F)F)c(-c2cnco2)s1 [Example 140, 4,6-dimethoxy-N-[5-(1,3-oxazol-5-yl)-4-(trifluoromethyl)-1,3-thiazol-2-yl]pyrimidine-5-carboxamide]",
< 50,"COc1ncnc(OC)c1C(=O)Nc1nc(C(F)(F)F)c(I)s1 [Example 2, N-[5-iodo-4-(trifluoromethyl)-1,3-thiazol-2-yl]-4,6-dimethoxypyrimidine-5-carboxamide]",
100 to 500,"COc1ncnc(OC)c1C(=O)Nc1nc(C(F)(F)F)c(C(O)C(C)(C)C)s1 (stereo not drawn) [Example 123, N-[5-(1-hydroxy-2,2-dimethylpropyl)-4-(trifluoromethyl)-1,3-thiazol-2-yl]-4,6-dimethoxypyrimidine-5-carboxamide]",
> 1000,"COc1ncnc(OC)c1C(=O)Nc1nc(/C=C/C(C)(C)C)cs1 [Example 104, N-{4-[(1E)-3,3-dimethylbut-1-en-1-yl]-1,3-thiazol-2-yl}-4,6-dimethoxypyrimidine-5-carboxamide]",
> 1000,"COc1ncnc(OC)c1C(=O)Nc1nc(C)c(C)s1 [Example 9, N-(4,5-dimethyl-1,3-thiazol-2-yl)-4,6-dimethoxypyrimidine-5-carboxamide]",
< 50,"COc1ncnc(OC)c1C(=O)Nc1nc(C(F)(F)F)c(C(=O)C(C)(C)C)s1 [Example 124, N-[5-(2,2-dimethylpropanoyl)-4-(trifluoromethyl)-1,3-thiazol-2-yl]-4,6-dimethoxypyrimidine-5-carboxamide]",
50 to 100,"COc1ncnc(OC)c1C(=O)Nc1nc(C(F)(F)F)c(C2CCCOC2)s1 (stereo not drawn) [Example 148, 4,6-dimethoxy-N-[5-(tetrahydro-2H-pyran-3-yl)-4-(trifluoromethyl)-1,3-thiazol-2-yl]pyrimidine-5-carboxamide]",
